Tested on: human washed platelets
Assay: ADP-induced aggregation of human washed platelets
Assay type: cell-based
Conditions: SCH442416 10 μM preapplication, data not shown

COc1ccc(CCCn2ncc3c2nc(N)n2nc(-c4ccco4)nc32)cc1 [SCH442416, 5-Amino-7-(3-(4-methoxy)phenylpropyl)-2-(2-furyl)pyrazolo[4,3-e]-1,2,4-triazolo[1,5-c]pyrimidine]
effect of antagonist on inhibition of platelet aggregation by 1 µM 10 (5 μM ADP): completely reversed the inhibitory effect
effect of antagonist alone on aggregation induced by 5 μM ADP: had no effect on aggregation

Reference: PMC2721767 (Purinergic Signalling, 2008)
